IC50 data for eight compounds are collected here from patent US20170369444A1, “INHIBITORS OF HISTONE DEMETHYLASES” (Gilead Sciences, Inc., priority 2014, published 2017).

What is called IC50 is the point on the concentration scale where inhibition reaches its midpoint.

Some results are limits rather than exact numbers.

What all share (type): biochemical
The target in one assay is PHF8 (KDM7) (Homo sapiens, UniProt Q9UPP1). Description: Histone lysine demethylase AlphaLISA assay, PHF8. The following applies: in vitro enzyme, read-out: PHF8 IC50 (HDME Inhibition). The procedure:
(§1) Histone lysine demethylase AlphaLISA assays are performed to determine IC50 values. […] Assays are performed analogously to the protocol described by PerkinElmer (Roy et al. PerkinElmer Technical Note: AlphaLISA #12, April 2011).
(§2) Assays are performed analogously to the protocol described by PerkinElmer (Roy et al. PerkinElmer Technical Note: AlphaLISA #12, April 2011).
(§3) Enzymes (final assay concentration 0.1-2.5 nM) are dissolved in enzyme buffer and incubated for 10 min before 5 μL is added to 5 μL 3% DMSO solutions of compounds in enzyme buffer, incubated for another 10 minutes, before 5 μL substrate solution is added and the reaction mixture is incubated at room temperature. 10 μL acceptor beads, suspended Epigenetic Buffer (Perkin Elmer AL008) from stock, are added and the suspension is incubated in the dark at room temperature, before 10 μL suspension of streptavidin donor beads (Perkin Elmer 6760002) in Epigenetic Buffer is added. After incubation at room temperature in the dark the plates are read.
(§4) Substrate solution: Substrate (final assay concentration 50-200 nM), 50 mM Hepes (pH 7.4-8.0), 0.003% Tween-20, 0.1% BS, 25 μM L-Asc, 10 μM α-KG. Enzyme Buffer: 50 mM Hepes (pH 7.4-8.0), 0.003% Tween-20, 0.1% BSA; 5 μM (NH4)2Fe(SO4)2

The target in the next assay is T1, KDM6A (UTX) (Homo sapiens, UniProt O15550).
T1 construct: 919-1401; host or cells: E. coli
The experiment in a line: Histone lysine demethylase AlphaLISA assay, KDM6A. The following applies: in vitro enzyme, read-out: KDM6A IC50 (HDME Inhibition). The procedure:
as §1, §2, §3, §4

The target in the next assay is T2, KDM2B (FBXL10) (Homo sapiens, UniProt Q8NHM5).
T2 construct: 1-650; purchased BPS Bioscience, US; host or cells: Bac (baculovirus/insect cells)
T2 sequence (Q8NHM5 1-650): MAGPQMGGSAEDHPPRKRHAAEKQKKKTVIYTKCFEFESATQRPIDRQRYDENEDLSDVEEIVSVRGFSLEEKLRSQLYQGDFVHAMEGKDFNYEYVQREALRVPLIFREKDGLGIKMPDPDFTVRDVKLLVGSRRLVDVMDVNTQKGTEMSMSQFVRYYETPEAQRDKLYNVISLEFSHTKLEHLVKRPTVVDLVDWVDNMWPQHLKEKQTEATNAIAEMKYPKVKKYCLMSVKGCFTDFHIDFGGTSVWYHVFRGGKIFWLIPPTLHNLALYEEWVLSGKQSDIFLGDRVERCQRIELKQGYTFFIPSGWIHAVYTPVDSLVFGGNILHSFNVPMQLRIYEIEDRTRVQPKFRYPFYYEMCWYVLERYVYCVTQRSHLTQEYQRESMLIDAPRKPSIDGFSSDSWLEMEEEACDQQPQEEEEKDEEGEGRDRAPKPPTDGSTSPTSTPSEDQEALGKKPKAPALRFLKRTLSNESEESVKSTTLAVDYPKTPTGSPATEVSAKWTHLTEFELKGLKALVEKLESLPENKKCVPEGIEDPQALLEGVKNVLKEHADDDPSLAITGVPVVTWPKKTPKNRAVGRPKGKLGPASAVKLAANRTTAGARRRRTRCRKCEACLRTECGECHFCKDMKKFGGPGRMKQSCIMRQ
The experiment in a line: Histone lysine demethylase AlphaLISA assay, KDM2B. The conditions noted are these: in vitro enzyme, read-out: KDM2B IC50 (HDME Inhibition). The procedure: as §1, §2, §3, §4

T1 sequence (O15550 919-1401): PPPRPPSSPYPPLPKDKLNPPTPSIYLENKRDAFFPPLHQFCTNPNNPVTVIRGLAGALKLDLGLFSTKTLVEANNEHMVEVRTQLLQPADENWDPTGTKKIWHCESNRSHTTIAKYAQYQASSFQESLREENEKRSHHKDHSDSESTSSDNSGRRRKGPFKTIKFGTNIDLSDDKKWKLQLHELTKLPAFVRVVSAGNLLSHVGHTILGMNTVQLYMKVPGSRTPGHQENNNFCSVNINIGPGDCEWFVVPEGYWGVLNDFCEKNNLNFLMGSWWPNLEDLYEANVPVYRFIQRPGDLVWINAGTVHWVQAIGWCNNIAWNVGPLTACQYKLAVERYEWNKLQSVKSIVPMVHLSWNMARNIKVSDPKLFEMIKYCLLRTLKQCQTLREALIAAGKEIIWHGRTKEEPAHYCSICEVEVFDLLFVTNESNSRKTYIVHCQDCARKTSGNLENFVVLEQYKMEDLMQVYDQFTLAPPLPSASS
Chain of PHF8 (KDM7) (Q9UPP1 whole entry): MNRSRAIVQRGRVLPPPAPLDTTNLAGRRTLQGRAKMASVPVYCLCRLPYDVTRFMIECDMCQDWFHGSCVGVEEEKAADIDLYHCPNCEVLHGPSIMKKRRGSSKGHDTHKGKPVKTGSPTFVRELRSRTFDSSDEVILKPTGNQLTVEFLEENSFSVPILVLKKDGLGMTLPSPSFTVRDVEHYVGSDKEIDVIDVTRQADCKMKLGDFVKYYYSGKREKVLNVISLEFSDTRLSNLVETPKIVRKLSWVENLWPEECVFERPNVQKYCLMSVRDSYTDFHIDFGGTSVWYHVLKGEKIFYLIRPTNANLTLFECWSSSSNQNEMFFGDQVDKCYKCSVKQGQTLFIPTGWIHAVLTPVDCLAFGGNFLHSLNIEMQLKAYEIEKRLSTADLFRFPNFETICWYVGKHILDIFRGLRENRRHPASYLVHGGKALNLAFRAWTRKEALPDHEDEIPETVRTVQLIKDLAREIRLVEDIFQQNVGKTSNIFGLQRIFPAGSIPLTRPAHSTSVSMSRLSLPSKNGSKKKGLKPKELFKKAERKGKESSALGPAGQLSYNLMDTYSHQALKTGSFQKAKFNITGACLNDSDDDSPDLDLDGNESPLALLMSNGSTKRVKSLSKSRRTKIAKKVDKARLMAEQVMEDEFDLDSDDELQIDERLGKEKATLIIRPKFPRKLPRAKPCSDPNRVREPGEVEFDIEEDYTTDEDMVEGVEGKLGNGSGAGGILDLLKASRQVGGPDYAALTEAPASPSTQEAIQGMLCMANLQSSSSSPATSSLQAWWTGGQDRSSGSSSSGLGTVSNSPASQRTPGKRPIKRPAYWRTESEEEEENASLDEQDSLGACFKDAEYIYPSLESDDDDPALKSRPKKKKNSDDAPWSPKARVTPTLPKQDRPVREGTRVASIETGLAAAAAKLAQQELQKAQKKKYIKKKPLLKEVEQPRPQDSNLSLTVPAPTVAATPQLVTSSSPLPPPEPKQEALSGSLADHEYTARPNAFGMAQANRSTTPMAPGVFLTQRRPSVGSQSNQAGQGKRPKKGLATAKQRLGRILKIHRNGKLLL

On to `CC(N[C@@H](C)C(=O)NCc1ccccc1CO)c1cc(C(=O)O)ccn1` (stereo partly drawn) [Compound 19, 2-(1-{[(1S)-1-({[2-(hydroxymethyl)phenyl]methyl}carbamoyl)ethyl]amino}ethyl) pyridine-4-carboxylic acid], for which the IC50 on PHF8 (KDM7) was 0.25 to 2.5 µM; at KDM6A (UTX), greater than 2.5 µM; at KDM2B (FBXL10) it was 0.25 to 2.5 µM.
Consider `CC(C)C[C@H](NCc1cc(C(=O)O)ccn1)C(=O)NCC1CCS(=O)(=O)C1` (stereo partly drawn) [Compound 38, 2-({[(1S)-1-{[(1,1-dioxo-1-thiolan-3-yl)methyl]carbamoyl}-3-methylbutyl]amino}methyl)pyridine-4-carboxylic acid], for which the figures for the IC50 at PHF8 (KDM7), at KDM6A (UTX) and on KDM2B (FBXL10) were 0.25 to 2.5 µM, greater than 2.5 µM and 0.25 to 2.5 µM, respectively.
On to `CC(N[C@@H](C)C(=O)NCc1ccccc1)c1cc(C(=O)O)ccn1` (stereo partly drawn) [Compound 36, 2-(1-{[(1S)-1-(benzylcarbamoyl)ethyl]amino}ethyl)pyridine-4-carboxylic acid], for which the 50% inhibitory concentration (IC50) was 0.25 to 2.5 µM on PHF8 (KDM7), greater than 2.5 µM on KDM6A (UTX) and 0.25 to 2.5 µM at KDM2B (FBXL10).
Regarding `CC(N[C@@H](C)c1nccs1)c1cc(C(=O)O)ccn1` (stereo partly drawn) [Compound 28, 2-(1-{[(1S)-1-(1,3-thiazol-2-yl)ethyl]amino}ethyl) pyridine-4-carboxylic acid], the values for the half-maximal inhibitory concentration (IC50) at PHF8 (KDM7), at KDM6A (UTX) and at KDM2B (FBXL10) were 0.25 to 2.5 µM, greater than 2.5 µM and 0.25 to 2.5 µM, respectively.
On to `COc1ccc([C@@H](C)N2CC[C@@H](CNCc3cc(C(=O)O)ccn3)C2=O)cc1` [Compound 78, 2-[({[(3S)-1-[(1R)-1-(4-methoxyphenyl)ethyl]-2-oxopyrrolidin-3-yl]methyl}amino)methyl]pyridine-4-carboxylic acid], for which the IC50 at PHF8 (KDM7) was less than 0.25 µM; at KDM6A (UTX), greater than 2.5 µM; at KDM2B (FBXL10) it was less than 0.25 µM.
For the compound `CCN1CC[C@@H](CNCc2cc(C(=O)O)ccn2)C1=O` [Compound 105, 2-[({[(3S)-1-ethyl-2-oxopyrrolidin-3-yl]methyl}amino)methyl]pyridine-4-carboxylic acid], the IC50 is less than 0.25 µM at PHF8 (KDM7), greater than 2.5 µM at KDM6A (UTX) and less than 0.25 µM on KDM2B (FBXL10).
Turning to `CC(N[C@@H](C)C(=O)NCc1ccccc1O)c1cc(C(=O)O)ccn1` (stereo partly drawn) [Compound 6, 2-(1-{[(1S)-1-{[(2-hydroxyphenyl)methyl]carbamoyl}ethyl]amino}ethyl)pyridine-4-carboxylic acid], the half-maximal inhibitory concentration (IC50) was 0.25 to 2.5 µM at PHF8 (KDM7), greater than 2.5 µM on KDM6A (UTX) and 0.25 to 2.5 µM on KDM2B (FBXL10).
For `CSCC[C@H](NCc1cc(C(=O)O)ccn1)C(=O)OC(C)(C)C` [Compound 49, 2-({[(2S)-1-(tert-butoxy)-4-(methylsulfanyl)-1-oxobutan-2-yl]amino}methyl)pyri-dine-4-carboxylic acid], the IC50 was 0.25 to 2.5 µM at PHF8 (KDM7), greater than 2.5 µM at KDM6A (UTX) and 0.25 to 2.5 µM at KDM2B (FBXL10).
